Test results as given in BigSolDB 2.1.

Details: in water

For `NCCS(=O)(=O)O`, the solubility (mole fraction) (278.05 K) was 0.00796, the solubility (mole fraction) (281.25 K) was 0.00932 and the solubility (mole fraction) (288.75 K) was 0.0119. The solubility (mole fraction) (289.85 K) was 0.0128, the solubility (mole fraction) (298.15 K) was 0.017 and the solubility (mole fraction) (305.35 K) was 0.0203. It also gave a solubility (mole fraction) (308.25 K) of 0.0213, a solubility (mole fraction) (310.95 K) of 0.0233 and a solubility (mole fraction) (314.85 K) of 0.0261. The solubility (mole fraction) (318.35 K) was 0.0291, the solubility (mole fraction) (321.55 K) was 0.0321 and the solubility (mole fraction) (331.75 K) was 0.0403. The solubility (mole fraction) (340.95 K) was 0.0477, the solubility (mole fraction) (345.15 K) was 0.0526 and the solubility (mole fraction) (350.25 K) was 0.0585. It also gave a solubility (mole fraction) (353.55 K) of 0.0646.
